From article PMC5876303, “Discovery of C-3 Tethered 2-oxo-benzo[1,4]oxazines as Potent Antioxidants: Bio-Inspired Based Design, Synthesis, Biological Evaluation, Cytotoxic, and in Silico Molecular Docking Studies” (Frontiers in Chemistry, 2018)
“Also recorded” adds a separate entry of the source.

Assays:
[1] = DPPH radical scavenging antioxidant assay; format: biochemical; settings: Table 1; mean ± SD, n = 3; 517 nm after 20 min
Description: In DPPH radical scavenging method the plant extract (0.75 mL) at different concentrations ranging from 10 to 100 μg mL^−1 was mixed with 1.5 mL of a DPPH methanolic solution (20 mg L^−1). Pure methanol was taken as control and ascorbic acid (vitamin C), vitamins A and E were used as a reference compounds. The absorbance was measured at 517 nm after 20 min of reaction. The % of DPPH decolouration of the sample was calculated according to the formula (Sharma and Bhat, [2009]).
Decolouration % = [1−(Abs SAMPLE/Abs CONTROL)]×100
The decolouration was plotted against the sample extract concentration and a logarithmic regression curve was established in order to calculate the IC50. The results are expressed as antiradical efficiency (AE), which is 1000-fold inverse of the IC50 value AE=1000/ IC50.

[2] = Ferric reducing antioxidant power (FRAP) assay; format: biochemical; settings: for FRAP assay (C0.5FRAP): mean ± SD, n = 3, concentration equivalent to FeSO4 at 0.5 mmol/L, 37°C, 30 min, 593 nm; for FRAP potency compared with standard reference BHT: in words, BHT C0.5FRAP = 546.0 ± 13.6 μM
Description: The FRAP reagent was prepared by the addition of freshly prepared 20.0 mM FeCl3.6H2O solution, 10.0 mM of […] (TPTZ) solution and 300 mM sodium acetate buffer (pH 3.6) in a ratio of 1:1:10 (v/v/v). After that, Sample (our synthesized 2-oxo-2-phenylethylidenes-linked 2-oxo-benzo[1,4]oxazines 20a-ab) was added to 3 ml of freshly prepared FRAP reagent and this reaction mixture was incubated at 37°C temperature for 30 min. and the absorbance was measured at 593 nm. It is also noted that, a freshly prepared solution of FeSO4 was used for calibration of standard curve. The FRAP antioxidant capability were evaluated in terms of C0.5FRAP (the antioxidant capability of samples related to their concentration, which is equivalent to that of FeSO4 at 0.5 mmol/L) (Benzie and Strain, [1996]).
The FRAP assay was deliberated using the method as illustrated by Benzie and Strain (Benzie and Strain, [1996]). […] The reducing nature of an antioxidant depends on their property to donate a hydrogen atom for the breaking of the free radical chain, which is responsible for oxidative stress etc.

| SMILES | DPPH assay IC50 [1] | melting point | FRAP assay (C0.5FRAP) [2] | FRAP potency compared with standard reference BHT [2] |
| --- | --- | --- | --- | --- |
| O=C1O[C@H]([C@@H](O)CO)C(O)=C1O [Ascorbic acid, reference compound] | 4.57 µg/mL |  |  |  |
| Cc1cc(C(C)(C)C)c(O)c(C(C)(C)C)c1 [BHT, reference compound] |  |  | 546.0 ± 13.6 µM |  |
| O=C1Oc2ccccc2N/C1=C\C(=O)c1ccccc1 [Compound 20a, (Z)-3-(2-oxo-2-phenylethylidene)-3,4-dihydro-2H-benzo[b][1,4]oxazin-2-one] | 10.2 ± 0.08 µg/mL |  | 611.5 ± 23.2 µM | less active than BHT |
| O=C1Oc2cc([N+](=O)[O-])ccc2N/C1=C\C(=O)c1ccc(Br)cc1 [Compound 20aa, (Z)-3-(2-(4-bromophenyl)-2-oxoethylidene)-7-nitro-3,4-dihydro-2H-benzo[b][1,4]oxazin-2-one] | 28.37 ± 0.16 µg/mL | 230 to 232 °C | 518.6 ± 17.6 µM | more potent than standard reference BHT |
| O=C1Oc2ccc(Cl)cc2N/C1=C\C(=O)c1ccc(Cl)cc1Cl [Compound 20f, (Z)-6-chloro-3-(2-(2,4-dichlorophenyl)-2-oxoethylidene)-3,4-dihydro-2H-benzo[b][1,4]oxazine-2-One] | 56.6 ± 1.12 µg/mL | 135 to 137 °C |  |  |
| Cc1cc(Br)c2c(c1)N/C(=C\C(=O)c1ccccc1)C(=O)O2 [Compound 20m, (Z)-8-bromo-6-methyl-3-(2-oxo-2-phenylethylidene)-3,4-dihydro-2H-benzo[b][1,4]oxazin-2-one] | 24.4 ± 0.46 µg/mL |  | 536.7 ± 21.4 µM | greater potency; also recorded: more potent than standard reference BHT |
| Cc1cc(Br)c2c(c1)N/C(=C\C(=O)c1ccc(F)cc1)C(=O)O2 [Compound 20n, (Z)-8-bromo-3-(2-(4-fluorophenyl)-2-oxoethylidene)-6-methyl-3,4-dihydro-2H-benzo[b][1,4] oxazin-2-one] | 16.9 ± 0.72 µg/mL |  | 482.5 ± 35.5 µM | more potent than standard reference BHT |
| Cc1cc(Br)c2c(c1)N/C(=C\C(=O)c1ccc(Cl)cc1Cl)C(=O)O2 [Compound 20o, (Z)-8-bromo-3-(2-(2,4-dichlorophenyl)-2-oxoethylidene)-6-methyl-3,4-dihydro-2H-benzo [b][1,4]oxazin-2-one] | 22.5 ± 0.64 µg/mL |  | 641.6 ± 28.7 µM |  |
| O=C1Oc2ccccc2N/C1=C\C(=O)c1ccc([N+](=O)[O-])cc1 [Compound 20s, (Z)-3-(2-(4-nitrophenyl)-2-oxoethylidene)-3,4-dihydro-2H-benzo[b][1,4]oxazin-2-one] | 21.3 ± 0.28 µg/mL | 207 to 209 °C | 618.4 ± 23.9 µM | less active |
| O=C1Oc2cc([N+](=O)[O-])ccc2N/C1=C\C(=O)c1ccccc1 [Compound 20w, (Z)-7-nitro-3-(2-oxo-2-phenylethylidene)-3,4-dihydro-2H-benzo[b][1,4]oxazin-2-one] | 12.53 ± 0.09 µg/mL | 240 to 242 °C | 597.4 ± 26.4 µM | less active than BHT |
| O=C1Oc2cc([N+](=O)[O-])ccc2N/C1=C\C(=O)c1ccc(Cl)cc1 [Compound 20y, (Z)-3-(2-(4-chlorophenyl)-2-oxoethylidene)-7-nitro-3,4-dihydro-2H-benzo[b][1,4]oxazin-2-one] | 19.8 ± 0.35 µg/mL | 205 to 207 °C | 708.2 ± 27.1 µM |  |

Now from value to compound, other results behind:

| DPPH assay IC50 [1] | melting point | SMILES | FRAP assay (C0.5FRAP) [2] | FRAP potency compared with standard reference BHT [2] |
| --- | --- | --- | --- | --- |
| 43.6 ± 0.74 µg/mL |  | COc1ccc(C(=O)/C=C2\Nc3ccc([N+](=O)[O-])cc3OC2=O)cc1 [Compound 20ab, (Z)-3-(2-(4-methoxyphenyl)-2-oxoethylidene)-7-nitro-3,4-dihydro-2H-benzo[b][1,4]oxazin-2-one] |  |  |
| 28.8 ± 0.6 µg/mL | 185 to 187 °C | O=C1Oc2ccc(Cl)cc2N/C1=C\C(=O)c1ccccc1 [Compound 20c, (Z)-6-chloro-3-(2-oxo-2-phenylethylidene)-3,4-dihydro-2H-benzo[b][1,4]oxazin-2-one] | 467.8 ± 22.4 µM | greater potency; also recorded: more potent than standard reference BHT |
| 45.2 ± 0.92 µg/mL | 155 to 157 °C | O=C1Oc2ccc(Cl)cc2N/C1=C\C(=O)c1ccc(F)cc1 [Compound 20d, (Z)-6-chloro-3-(2-(4-fluorophenyl)-2-oxoethylidene)-3,4-dihydro-2H-benzo[b][1,4]oxazin-2-one] | 732.7 ± 41.6 µM |  |
| 92.2 ± 1.54 µg/mL | 182 to 185 °C | O=C1Oc2ccc(Cl)cc2N/C1=C\C(=O)c1ccc(Cl)cc1 [Compound 20e, (Z)-6-chloro-3-(2-(4-chlorophenyl)-2-oxoethylidene)-3,4-dihydro-2H-benzo[b][1,4]oxazin-2-one] |  |  |
| 61.2 ± 1.23 µg/mL | 175 to 177 °C | O=C1Oc2ccc(Cl)cc2N/C1=C\C(=O)c1ccc(Br)cc1 [Compound 20g, (Z)-3-(2-(4-bromophenyl)-2-oxoethylidene)-6-chloro-3,4-dihydro-2H-benzo[b][1,4]oxazin-2-one] | 798.6 ± 32.5 µM |  |
| 44.8 ± 0.81 µg/mL | 160 to 162 °C | Cc1ccc(C(=O)/C=C2\Nc3cc(Cl)ccc3OC2=O)cc1 [Compound 20h, (Z)-6-chloro-3-(2-oxo-2-(p-tolyl)ethylidene)-3,4-dihydro-2H-benzo[b][1,4]oxazin-2-one] | 821.9 ± 38.7 µM |  |
| 34.9 ± 0.73 µg/mL |  | COc1ccc(C(=O)/C=C2\Nc3cc(Cl)ccc3OC2=O)cc1 [Compound 20i, (Z)-6-chloro-3-(2-(4-methoxyphenyl)-2-oxoethylidene)-3,4-dihydro-2H-benzo[b][1,4]oxazin-2-one] | 648.2 ± 29.5 µM |  |
| 34.4 ± 0.7 µg/mL |  | Cc1ccc2c(c1)N/C(=C\C(=O)c1ccc(F)cc1)C(=O)O2 [Compound 20j, (Z)-3-(2-(4-fluorophenyl)-2-oxoethylidene)-6-methyl-3,4-dihydro-2H-benzo[1,4]oxazin-2-one] | 502.6 ± 18.2 µM | more potent than standard reference BHT |
| 43.6 ± 0.92 µg/mL | 142 to 145 °C | Cc1ccc2c(c1)N/C(=C\C(=O)c1ccc(Cl)cc1Cl)C(=O)O2 [Compound 20k, (Z)-3-[2-(2,4-dichloro-phenyl)-2-oxo-ethylidene]-6-methyl-3,4-dihydro-benzo[1,4]oxazin-2-one] | 652.5 ± 30.6 µM |  |
| 43.8 ± 0.85 µg/mL | 180 to 182 °C | COc1ccc(C(=O)/C=C2\Nc3cc(C)ccc3OC2=O)cc1 [Compound 20l, (Z)-3-[2-(4-methoxy-phenyl)-2-oxo-ethylidene]-6-methyl-3,4-dihydro-benzo[1,4]oxazin-2-one] |  |  |
| 44.3 ± 0.45 µg/mL | 259 to 260 °C | Cc1cc(Br)c2c(c1)N/C(=C\C(=O)c1ccc(Br)cc1)C(=O)O2 [Compound 20p, (Z)-8-bromo-3-(2-(4-bromophenyl)-2-oxoethylidene)-6-methyl-3,4-dihydro-2H-benzo[b] [1,4]oxazin-2-one] | >1000 µM |  |
| 36.24 ± 0.27 µg/mL | 219 to 220 °C | Cc1ccc(C(=O)/C=C2\Nc3cc(C)cc(Br)c3OC2=O)cc1 [Compound 20q, (Z)-8-bromo-6-methyl-3-(2-oxo-2-(p-tolyl)ethylidene)-3,4-dihydro-2H-benzo[b][1,4]oxazin-2-one] |  |  |
| 12.23 ± 0.05 µg/mL |  | Cc1ccc2c(c1)N/C(=C\C(=O)c1ccc([N+](=O)[O-])cc1)C(=O)O2 [Compound 20r, (Z)-6-methyl-3-(2-(4-nitrophenyl)-2-oxoethylidene)-3,4-dihydro-2H-benzo[1,4]oxazin-2-one] | 328.6 ± 25.8 µM | potent activity than BHT; also recorded: more potent than standard reference BHT |
| 32.1 ± 0.52 µg/mL | > 250 °C | O=C1Oc2ccc([N+](=O)[O-])cc2N/C1=C\C(=O)c1ccc(F)cc1 [Compound 20u, (Z)-3-(2-(4-fluorophenyl)-2-oxoethylidene)-6-nitro-3,4-dihydro-2H-benzo[b][1,4]oxazin-2-one] | 424.5 ± 19.7 µM | more potent than standard reference BHT |
| 43.6 ± 0.92 µg/mL | 195 to 197 °C | COc1ccc(C(=O)/C=C2\Nc3cc([N+](=O)[O-])ccc3OC2=O)cc1 [Compound 20v, (Z)-3-(2-(4-methoxyphenyl)-2-oxoethylidene)-6-nitro-3,4-dihydro-2H-benzo[b][1,4]oxazin-2-one] |  |  |
